According to patent US20250195576A1, “METHOD TO GENERATE MORE EFFICIENT CAR-T CELLS” (INSTITUT NATIONAL DE LA SANTÉ ET DE LA RECHERCHE MÉDICALE, priority 2022, published 2025):

Legend:
[1] = tested on: Human primary T lymphocytes; experiment: Chemokine receptor membrane expression by flow cytometry; format: cell-based; details: data not shown
Protocol: (§1) Flow cytometry. Cells were washed and stained with antibodies diluted in PBS (Thermo Fisher Scientific; cat #10010001) supplemented with 0.1% BSA (Sigma-Aldrich, cat #A7030-500G) for 20 minutes at 4° C. After wash with PBS, cells were immediately analyzed by flow cytometry. For intracellular staining, cells were fixed with 4% paraformaldehyde (PFA) for 10 minutes at room temperature, permeabilized using a buffer containing 0.1% Saponin (Sigma-Aldrich, 84510) in PBS and stained after two PBS washes using antibodies diluted in the same saponin buffer for 30 minutes at 4° C. After two washes, cells were run on BD LSRII (BD Biosciences) and analyzed using FlowJo software.

[2] = tested on: Human primary T lymphocytes; experiment: T cell subsets and immune checkpoint expression by flow cytometry; format: cell-based
Protocol: PBT were treated with 500 nM of AS1842856 or vehicle only for 7 days. (3A) Memory subsets composition in vehicle or AS1842856 CD4 (upper panel) and CD8 (lower panel) cells. TN are CD45RA+, CD27+, CD95−; TSCM are CD45RA+, CD27+, CD95+; TCM are CD45RA−, CD27+; TEM are CD45RA−, CD27− and Teff are CD45RA+, CD27−. The graphs show the mean percentage±SEM of the different subsets in vehicle or AS1842856 conditions on CD4 (upper panel) and CD8 (lower panel) T cells obtained with five independent donors. Significance was assessed using 1-way Anova test. (3B) CTLA-4, PD-1 and TIGIT expressions on CD4 (upper panel) and CD8 (lower panel) T cells were measured by FACS. The graphs show the MFI±SEM obtained with five independent donors. Significance was assessed using a paired Student t-test.
as §1

FOXO1 = experiment: CD62L expression by cytometry; format: cell-based, human
Protocol: Cell transfection. Cells were transfected by nucleofection using the Human T Cell Nucleofector solution (Lonza, VPA-1002) and program U-014 of the Nucleofector AMAXA. For CRISPR, 2×10^6 cells were nucleofected with 75 pmol of Cas9 protein (Thermo Fisher, #A36499) and one RNA guide targeting the FOXO1 gene (Thermo Fisher, #sgRNACRISPR889854_SGM Foxo1) at a 1:1 molar ratio. To induce FOXO1 expression, 5×10^6 cells were transfected with 5 μg DNA of the pEGFP-FOXO1-T24A-S256A-S319A-H215R plasmid (Nagashima et al., 2010) or pEGFP-N1 (clontech) as control. Jurkat T cells (5×106 in RPMI 1640 medium) were electroporated at 260 V, 1000 μF in 4-mm polycarbonate cuvettes (Eurogentec) with 5 μg of the GFP, the triple mutant T24A/S256A/S319A FOX01-GFP (FOXO1-TM-GFP) or the FOXO1-TM-GFP DNA binding mutant plasmids (FOXO1-TM-H215R-GFP) (Fabre et al. 2008). Four hours later, AS1842856 was added or not in the culture. At 48 hours, CD62L expression was analyzed by cytometry.
Flow cytometry. Cells were washed and stained with antibodies diluted in PBS (Thermo Fisher Scientific; cat #10010001) supplemented with 0.1% BSA (Sigma-Aldrich, cat #A7030-500G) for 20 minutes at 4° C. After wash with PBS, cells were immediately analyzed by flow cytometry. […] After two washes, cells were run on BD LSRII (BD Biosciences) and analyzed using FlowJo software.

[3] = tested on: Human primary T lymphocytes; experiment: TNF-α intracellular labeling and cytokine secretion (MSD assay); format: cell-based
Protocol: (§2) FIGS. 1A to 1C: FOXO1 inhibition allows increase number of cytotoxic T cells and increased their activity. Human primary T lymphocytes from healthy donor (PBT) were treated with AS1842856 (500 nM) or equivalent of DMSO for 7 days. (1A) Cells were surface labeled with anti-CD4 and anti-CD8, next fixed and permeabilized before labeled with antibodies against Granzyme B. The graphs present the values correspond to the mean±SEM obtained with three independent donors. Significance was assessed using a paired Student t-test. (1B) At the end of the culture, cells were stimulated by PMA and ionomycin during three hours. After CD4 and CD8 labelling, intracellular detection of TNF-α was performed using an antibody against TNF-α. The values correspond to the mean±SEM obtained with three independent donors. Significance was assessed using a paired Student t-test. (1C) CD8 T cells from vehicle or treated cells were purified and co-cultured with P815 target cells pre-coated with anti-CD3 mAb, percentage of lysis was evaluated by 51Cr release assay at different effector: target ratios. The values correspond to the mean±SEM obtained with three independent donors. Significance was assessed using 2-way Anova test.
(§3) Flow cytometry. […] After wash with PBS, cells were immediately analyzed by flow cytometry. […] After two washes, cells were run on BD LSRII (BD Biosciences) and analyzed using FlowJo software.

[4] = tested on: Human primary T lymphocytes; experiment: Granzyme B expression by intracellular flow cytometry; format: cell-based
Protocol: as §2
Cells. […]
as §3

[5] = tested on: Human primary T lymphocytes; experiment: In vitro proliferation assay (CFSE dilution, anti-CD3/CD28 beads); format: cell-based; details: data not shown
Protocol: Proliferation assay. In vitro proliferation assay of primary T cells was assessed by dilution of Cell Trace Fluorescent Green kit (CFSE, Invitrogen, cat #C34554). After two washes in RPMI 1640 GlutaMAX medium, cells were resuspended at 4×10^6 cells per ml in a 5 μM Cell Trace Fluorescent Green solution. Cells were incubated in dark at 37° C. for 20 minutes. After the loading, cells were washed with a volume of hot RPMI medium supplemented with 10% Human AB serum, penicillin and streptomycin (50U/ml and 50 μg/m respectively) corresponding to 5 times the loading volume. Cell suspension was collected and dispensed into 96-wells round-bottom plates (2×10^5 cells per well) and stimulated using anti-CD3/CD28 coated-beads Dynabeads (Invitrogen, #11131D) for 3 days. Samples were run on BD LSR Fortessa and analyzed using FlowJo software. For in vivo proliferation assay, T^AS cells were labeled by dilution of CFSE as for in vitro proliferation assay described above. Then 10^7 CFSE^+ cells per immunodificient NSG mouse (NOD.Cg-Prkde^scid I12rg^tm1WjI/SzJ mouse, cat #JAX: 005557, Charles River) resuspended in 100 μL PBS supplemented by 10% FBS were intravenously injected in the retro-orbital vein. 5, 9 or 12 days after injection, spleens were collected to be minced and meshed on the top of a 40 μm cell strainer (Thermo Fisher, #22363547). […] Data were analyzed using FlowJo software.

[6] = tested on: Human primary T lymphocytes; experiment: Calcium measurements upon TCR stimulation; format: cell-based; details: compared to untreated cells; data not shown
Protocol: Calcium Measurements. T cells were incubated for 20 minutes at 37° C. with 1.5 μM Fura-2/AM (Molecular Probes, F1225). Experiments were performed at 37° C. in mammalian saline buffer (140 mM NaCl, 5 mM KCl, 1 mM CaCl2, 1 mM MgCl2, 20 mM HEPES, 11 mM glucose). Calcium measurements by spectrofluorimetry were performed as previously described (Conche et al. 2009) with a Cary Eclipse spectrofluorimeter (Varian) (excitation: 340 and 380 nm; emission: 510 nm).

[7] = tested on: Human primary T lymphocytes; experiment: Viability assay (propidium iodide); format: cell-based; details: in vitro culture
Protocol: PBT were treated with AS1842856 (500 nM) or vehicle only. Every seven days, some cells from the two conditions were collected and labeled with Propidium Iodide (PI). […] Significance was assessed using 2-way Anova test.
Viability assay. Cells were collected and propidium iodide was added (10 μg/ml, Invitrogen). Samples were run on FACSCalibur (Becton Dickinson) and analyzed using FlowJo software.

[8] = tested on: ERK and AKT signaling proteins; experiment: Western blot of ERK and AKT phosphorylation upon TCR stimulation; format: cell-based, human; details: after TCR stimulation, including at steady state; data not shown
Protocol: Western blot analysis. Protein expression levels were analyzed by Western blot as described (Froehlich et al. 2016). Blotting with primary was followed by goat-anti-mouse- or goat-anti-rabbit-HRP (Jackson ImmunoReseach) incubation and ECL revelation (GE Healthcare, #RPN2106).

Compound: CCn1cc(C(=O)O)c(=O)c2c(N)c(F)c(NC3CCCCC3)cc21 [AS1842856]
- CCR4 membrane expression [1]: increase
- CCR6 membrane expression [1]: increase
- CX3CR1 membrane expression [1]: increase
- CXCR4 membrane expression [1]: significant decrease
- CTLA-4 expression [2]: no significant modification
- Markers of Th1 (T-bet+), Th2 (GATA3+) and Treg (FOXP3+) subsets ([2]; CD4 subsets, data not shown): no significant changes
- Cells expressing PD1 ([2]; after AS1842856 treatment): no more than 10%
- Naive subset (CD45RA+/CD27+/CD95−) ([2]; both CD4 and CD8 T cells): sharp decrease
- TSCM subset (CD45RA+/CD27+/CD95+) ([2]; both CD4 and CD8 T cells): strong increase
- PD1 expression ([2]; both CD8+ and CD4+ cells): small but significant increase
- CD8 expression ([2]; data not shown): decreased expression
- Tfh (CXCR5+, BcL-6+) subset ([2]; data not shown): slight increase
- TIGIT expression ([2]; reaching significance only in CD8+ T cells): consistent increase
- CD62L expression in Jurkat T cells with FOXO1 H215R mutant (FOXO1; Jurkat T cell line transfected with FOXO1 H215R mutant, 48 hours, data not shown): could not be further decreased
- CD62L expression (FOXO1; primary T cells): decrease
- TNF-α expression (percentage of cells, intracellular labeling) ([3]; 500 nM 7 days, then PMA and ionomycin three hours): significantly increased
- TNF-α secreted in supernatant (MSD assay) ([3]; data not shown): confirmed
- Granzyme B expression in CD8 subset ([4]; AS1842856 500 nM, 7 days, CD8 T cells): upregulated
- Increase of granzyme B expression ([4]; same conditions as Foxo1 invalidation by CRISPR, data not shown): more than two-fold increase
- CFSE dilution peaks ([5]; after 60h of stimulation): greater number of CFSE dilution peaks
- Time to proliferation after stimulation ([5]; anti-CD3/CD28 beads, CFSE): 40 h
- Calcium influx induced upon TCR stimulation [6]: less rapid and of a lower magnitude
- T cell viability [7]: promotes
- Toxicity on T cells [7]: no toxicity
- Phosphorylation of AKT [8]: hypophosphorylation
- Phosphorylation of ERK [8]: hyperphosphorylation
